{"source": "PubChem BioAssay AID1963827", "about": "(Molecular Pharmacology Branch, DTP, NCI, 2024)", "system": "994946-033-R-J1-PDC complex spheroid viability", "assay": "Anticancer human tumor 994946-033-R-J1-PDC patient-derived melanoma cell line growth inhibition [POLQ]", "conditions": "for IC50: curve of first compound; for viability, T/C: stronger effect = lower value", "summary_of_the_method": "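PDC + HUVEC + MSC complex spheroids; POLQ inhibitors ± partner drugs; top conc. at/near clinical Cmax, else 10 microM (SN-38 1 microM), half-log dilutions; 37 degrees C, 5% CO2.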", "data": [{"compound": "C=CCn1c(=O)c2cnc(Nc3ccc(N4CCN(C)CC4)cc3)nc2n1-c1cccc(C(C)(C)O)n1", "note": "+ Cc1cccc(N(C)C(=O)C2C(O)CCN2c2nc(C)cc(C(F)(F)F)c2C#N)c1;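 note: spheroids exposed to drugs for 7 days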;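 for viability, T/C: 100% = DMSO vehicle treated spheroids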", "values": [{"measurement": "IC50", "setting": "second compound 0.0316 µM", "result": 625, "unit": "nM"}, {"measurement": "IC50", "setting": "second compound 0.1 µM", "result": "> 1000", "unit": "nM"}, {"measurement": "IC50", "setting": "second compound 0.316 µM", "result": 489, "unit": "nM"}, {"measurement": "IC50", "setting": "second compound 1 µM", "result": 765, "unit": "nM"}, {"measurement": "IC50", "setting": "second compound 3.16 µM", "result": 871, "unit": "nM"}, {"measurement": "IC50", "setting": "second compound 10 µM", "result": 915, "unit": "nM"}, {"measurement": "viability, T/C", "setting": "second compound 0.0316 µM, first compound 0.00316 µM", "result": 94.9, "unit": "%"}, {"measurement": "viability, T/C", "setting": "second compound 0.0316 µM, first compound 0.01 µM", "result": 95.3, "unit": "%"}, {"measurement": "viability, T/C", "setting": "second compound 0.0316 µM, first compound 0.0316 µM", "result": 132, "unit": "%"}, {"measurement": "viability, T/C", "setting": "second compound 0.0316 µM, first compound 0.1 µM", "result": 108, "unit": "%"}, {"measurement": "viability, T/C", "setting": "second compound 0.0316 µM, first compound 0.316 µM", "result": 73.3, "unit": "%"}, {"measurement": "viability, T/C", "setting": "second compound 0.0316 µM, first compound 1 µM", "result": 33.9, "unit": "%"}, {"measurement": "viability, T/C", "setting": "second compound 0.1 µM, first compound 0.00316 µM", "result": 66.7, "unit": "%"}, {"measurement": "viability, T/C", "setting": "second compound 0.1 µM, first compound 0.01 µM", "result": 93.5, "unit": "%"}, {"measurement": "viability, T/C", "setting": "second compound 0.1 µM, first compound 0.0316 µM", "result": 103, "unit": "%"}, {"measurement": "viability, T/C", "setting": "second compound 0.1 µM, first compound 0.1 µM", "result": 115, "unit": "%"}, {"measurement": "viability, T/C", "setting": "second compound 0.1 µM, first compound 0.316 µM", "result": 73.5, "unit": "%"}, {"measurement": "viability, T/C", "setting": "second compound 0.1 µM, first compound 1 µM", "result": 52.4, "unit": "%"}, {"measurement": "viability, T/C", "setting": "second compound 0.316 µM, first compound 0.00316 µM", "result": 80.4, "unit": "%"}, {"measurement": "viability, T/C", "setting": "second compound 0.316 µM, first compound 0.01 µM", "result": 112, "unit": "%"}, {"measurement": "viability, T/C", "setting": "second compound 0.316 µM, first compound 0.0316 µM", "result": 83.5, "unit": "%"}, {"measurement": "viability, T/C", "setting": "second compound 0.316 µM, first compound 0.1 µM", "result": 102, "unit": "%"}, {"measurement": "viability, T/C", "setting": "second compound 0.316 µM, first compound 0.316 µM", "result": 60, "unit": "%"}, {"measurement": "viability, T/C", "setting": "second compound 0.316 µM, first compound 1 µM", "result": 33.5, "unit": "%"}, {"measurement": "viability, T/C", "setting": "second compound 1 µM, first compound 0.00316 µM", "result": 111, "unit": "%"}, {"measurement": "viability, T/C", "setting": "second compound 1 µM, first compound 0.01 µM", "result": 95.1, "unit": "%"}, {"measurement": "viability, T/C", "setting": "second compound 1 µM, first compound 0.0316 µM", "result": 117, "unit": "%"}, {"measurement": "viability, T/C", "setting": "second compound 1 µM, first compound 0.1 µM", "result": 113, "unit": "%"}, {"measurement": "viability, T/C", "setting": "second compound 1 µM, first compound 0.316 µM", "result": 84.3, "unit": "%"}, {"measurement": "viability, T/C", "setting": "second compound 1 µM, first compound 1 µM", "result": 39.6, "unit": "%"}, {"measurement": "viability, T/C", "setting": "second compound 3.16 µM, first compound 0.00316 µM", "result": 116, "unit": "%"}, {"measurement": "viability, T/C", "setting": "second compound 3.16 µM, first compound 0.01 µM", "result": 118, "unit": "%"}, {"measurement": "viability, T/C", "setting": "second compound 3.16 µM, first compound 0.0316 µM", "result": 111, "unit": "%"}, {"measurement": "viability, T/C", "setting": "second compound 3.16 µM, first compound 0.1 µM", "result": 108, "unit": "%"}, {"measurement": "viability, T/C", "setting": "second compound 3.16 µM, first compound 0.316 µM", "result": 111, "unit": "%"}, {"measurement": "viability, T/C", "setting": "second compound 3.16 µM, first compound 1 µM", "result": 41.7, "unit": "%"}, {"measurement": "viability, T/C", "setting": "second compound 10 µM, first compound 0.00316 µM", "result": 123, "unit": "%"}, {"measurement": "viability, T/C", "setting": "second compound 10 µM, first compound 0.01 µM", "result": 73.9, "unit": "%"}, {"measurement": "viability, T/C", "setting": "second compound 10 µM, first compound 0.0316 µM", "result": 81.3, "unit": "%"}, {"measurement": "viability, T/C", "setting": "second compound 10 µM, first compound 0.1 µM", "result": 121, "unit": "%"}, {"measurement": "viability, T/C", "setting": "second compound 10 µM, first compound 0.316 µM", "result": 80.5, "unit": "%"}, {"measurement": "viability, T/C", "setting": "second compound 10 µM, first compound 1 µM", "result": 47.4, "unit": "%"}]}]}
